In patent publication US10494332B2, “Protein tyrosine phosphatases or SHP2 inhibitors and uses thereof” (Indiana University Research and Technology Corporation, priority 2015, dated 2019):
Where two headings read alike, the source gives them in different places.

Columns and labels:
Format in all cases: biochemical
SHP2 = target: T1, SHP2 (Homo sapiens, UniProt Q06124); experiment: SHP2 phosphatase inhibition assay (pNPP); conditions: read-out: IC50 SHP2
T1 sequence (Q06124 224-528): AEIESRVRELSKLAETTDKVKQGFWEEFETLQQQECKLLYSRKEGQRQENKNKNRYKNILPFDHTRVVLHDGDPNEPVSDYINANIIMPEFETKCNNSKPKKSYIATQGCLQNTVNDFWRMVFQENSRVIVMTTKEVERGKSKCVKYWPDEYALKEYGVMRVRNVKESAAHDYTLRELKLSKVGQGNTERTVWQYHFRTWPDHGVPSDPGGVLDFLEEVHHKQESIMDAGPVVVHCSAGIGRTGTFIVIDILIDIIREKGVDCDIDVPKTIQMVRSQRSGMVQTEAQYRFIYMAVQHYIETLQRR

HePTP = target: T2, HePTP (Homo sapiens, UniProt P35236); experiment: PTP inhibition assay (pNPP); conditions: […]; HePTP
T2 sequence (P35236 1-360): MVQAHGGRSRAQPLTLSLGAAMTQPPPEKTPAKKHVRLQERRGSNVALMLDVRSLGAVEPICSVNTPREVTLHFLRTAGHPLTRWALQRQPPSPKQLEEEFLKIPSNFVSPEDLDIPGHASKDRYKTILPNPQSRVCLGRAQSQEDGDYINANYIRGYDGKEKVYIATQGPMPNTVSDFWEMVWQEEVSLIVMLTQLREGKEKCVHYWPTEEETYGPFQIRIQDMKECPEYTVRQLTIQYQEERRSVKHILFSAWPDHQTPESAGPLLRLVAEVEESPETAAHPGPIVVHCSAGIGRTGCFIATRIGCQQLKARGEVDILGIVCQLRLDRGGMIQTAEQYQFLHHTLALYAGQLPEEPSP

LMWPTP = target: T3, LMWPTP (Homo sapiens, UniProt P24666); experiment: PTP inhibition assay (pNPP)
T3 sequence (P24666 1-158): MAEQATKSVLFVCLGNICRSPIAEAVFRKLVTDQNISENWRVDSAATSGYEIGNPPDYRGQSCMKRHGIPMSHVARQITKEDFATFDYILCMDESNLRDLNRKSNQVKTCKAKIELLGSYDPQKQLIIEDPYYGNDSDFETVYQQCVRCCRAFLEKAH

LYP = target: T4, LYP (Homo sapiens, UniProt Q9Y2R2); experiment: PTP inhibition assay (pNPP)
T4 sequence (Q9Y2R2 1-807): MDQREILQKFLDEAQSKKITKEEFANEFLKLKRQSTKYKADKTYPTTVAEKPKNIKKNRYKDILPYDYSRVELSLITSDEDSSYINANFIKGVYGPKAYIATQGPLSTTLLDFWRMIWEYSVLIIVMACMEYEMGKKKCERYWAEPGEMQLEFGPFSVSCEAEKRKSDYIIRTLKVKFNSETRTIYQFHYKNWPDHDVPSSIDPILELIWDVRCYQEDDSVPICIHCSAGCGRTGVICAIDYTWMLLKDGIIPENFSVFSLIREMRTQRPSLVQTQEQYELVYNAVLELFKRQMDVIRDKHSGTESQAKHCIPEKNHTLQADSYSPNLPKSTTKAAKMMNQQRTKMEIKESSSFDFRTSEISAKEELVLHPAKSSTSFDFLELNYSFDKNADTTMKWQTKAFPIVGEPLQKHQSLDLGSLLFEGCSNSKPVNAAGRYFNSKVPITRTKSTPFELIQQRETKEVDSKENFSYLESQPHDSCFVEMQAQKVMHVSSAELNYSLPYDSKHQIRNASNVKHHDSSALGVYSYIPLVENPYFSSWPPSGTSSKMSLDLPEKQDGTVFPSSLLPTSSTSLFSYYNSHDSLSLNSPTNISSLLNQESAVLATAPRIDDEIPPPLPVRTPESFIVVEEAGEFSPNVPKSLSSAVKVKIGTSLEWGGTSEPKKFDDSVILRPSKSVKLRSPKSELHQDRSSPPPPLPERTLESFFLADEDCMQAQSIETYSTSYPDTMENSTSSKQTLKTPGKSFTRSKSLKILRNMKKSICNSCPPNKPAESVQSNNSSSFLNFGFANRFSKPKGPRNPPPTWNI

PTP1B = target: T5, PTP1B (Homo sapiens, UniProt P18031); experiment: PTP inhibition assay (pNPP); conditions: pNPP at Km, pH 7.0, 25° C.
T5 sequence (P18031 1-435): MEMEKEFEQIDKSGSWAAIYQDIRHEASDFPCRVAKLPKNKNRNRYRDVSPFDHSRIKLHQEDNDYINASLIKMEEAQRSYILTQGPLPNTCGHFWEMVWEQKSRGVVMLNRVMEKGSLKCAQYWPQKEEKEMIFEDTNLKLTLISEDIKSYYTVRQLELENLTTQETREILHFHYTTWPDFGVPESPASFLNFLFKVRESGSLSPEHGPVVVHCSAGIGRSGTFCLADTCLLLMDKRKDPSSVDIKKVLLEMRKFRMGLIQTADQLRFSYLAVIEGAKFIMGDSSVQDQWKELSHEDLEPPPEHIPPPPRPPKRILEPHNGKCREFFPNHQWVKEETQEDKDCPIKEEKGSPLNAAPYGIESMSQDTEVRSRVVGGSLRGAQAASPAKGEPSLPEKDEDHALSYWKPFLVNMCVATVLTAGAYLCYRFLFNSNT

CD45 = target: T6, CD45 (Homo sapiens, UniProt P08575); experiment: PTP inhibition assay (pNPP); conditions: pNPP at Km, pH 7.0, 25° C.
T6 sequence (P08575 26-1306): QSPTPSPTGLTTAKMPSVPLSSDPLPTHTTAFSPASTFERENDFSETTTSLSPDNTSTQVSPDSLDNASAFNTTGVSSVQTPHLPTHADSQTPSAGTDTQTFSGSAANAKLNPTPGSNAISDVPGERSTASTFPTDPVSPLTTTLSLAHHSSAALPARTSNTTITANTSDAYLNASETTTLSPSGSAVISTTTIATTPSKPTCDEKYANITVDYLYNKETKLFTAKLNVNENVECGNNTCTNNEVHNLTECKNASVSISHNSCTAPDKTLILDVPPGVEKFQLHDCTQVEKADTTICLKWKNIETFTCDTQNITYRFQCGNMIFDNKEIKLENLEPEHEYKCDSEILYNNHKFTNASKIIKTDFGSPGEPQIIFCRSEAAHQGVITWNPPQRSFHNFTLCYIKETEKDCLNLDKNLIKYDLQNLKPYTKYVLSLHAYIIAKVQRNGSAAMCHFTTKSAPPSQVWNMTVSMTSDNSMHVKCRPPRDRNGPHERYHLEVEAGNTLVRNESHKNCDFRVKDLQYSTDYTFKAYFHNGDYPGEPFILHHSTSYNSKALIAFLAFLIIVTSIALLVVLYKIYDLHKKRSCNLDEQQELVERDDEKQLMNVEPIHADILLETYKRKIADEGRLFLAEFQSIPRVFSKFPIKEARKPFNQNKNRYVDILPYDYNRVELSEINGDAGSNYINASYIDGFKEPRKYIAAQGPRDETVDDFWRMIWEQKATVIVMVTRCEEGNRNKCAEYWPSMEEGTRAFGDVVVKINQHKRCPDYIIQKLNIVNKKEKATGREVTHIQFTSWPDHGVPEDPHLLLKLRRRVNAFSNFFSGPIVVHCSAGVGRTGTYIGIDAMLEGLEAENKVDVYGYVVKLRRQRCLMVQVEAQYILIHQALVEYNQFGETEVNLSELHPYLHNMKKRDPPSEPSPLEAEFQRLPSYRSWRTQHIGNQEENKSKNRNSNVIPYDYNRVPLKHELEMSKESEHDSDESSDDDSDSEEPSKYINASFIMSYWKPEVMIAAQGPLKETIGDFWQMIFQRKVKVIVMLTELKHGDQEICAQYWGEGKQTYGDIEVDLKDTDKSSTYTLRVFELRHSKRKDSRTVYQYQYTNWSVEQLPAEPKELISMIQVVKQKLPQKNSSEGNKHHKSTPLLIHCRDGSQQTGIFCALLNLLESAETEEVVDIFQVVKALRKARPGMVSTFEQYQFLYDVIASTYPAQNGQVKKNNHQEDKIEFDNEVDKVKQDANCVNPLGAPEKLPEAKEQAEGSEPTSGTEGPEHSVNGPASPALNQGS

Laforin = target: T7, Laforin (Homo sapiens, UniProt O95278); experiment: PTP inhibition assay (pNPP); conditions: for IC50: pNPP at Km, pH 7.0, 25° C., read-out: IC50 Laforin
T7 sequence (O95278 1-331): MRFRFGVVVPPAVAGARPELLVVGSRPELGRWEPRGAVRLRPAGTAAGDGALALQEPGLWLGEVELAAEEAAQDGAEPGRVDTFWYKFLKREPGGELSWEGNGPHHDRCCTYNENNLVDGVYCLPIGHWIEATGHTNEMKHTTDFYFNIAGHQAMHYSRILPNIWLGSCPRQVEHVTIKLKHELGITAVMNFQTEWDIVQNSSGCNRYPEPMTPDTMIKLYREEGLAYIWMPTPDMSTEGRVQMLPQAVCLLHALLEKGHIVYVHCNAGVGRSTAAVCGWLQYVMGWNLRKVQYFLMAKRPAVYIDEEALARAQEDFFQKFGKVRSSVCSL

Compound | IC50 (SHP2; […], SHP2) [µM] | IC50 (HePTP) [µM] | IC50 (LMWPTP; […], LMWPTP) [µM] | IC50 (LYP; […], LYP) [µM] | IC50 (SHP2; pNPP at Km, pH 7.0, 25° C.) [µM] | IC50 (PTP1B) [µM] | IC50 (CD45) [µM] | IC50 (Laforin) [nM] | IC50 (LYP; pNPP at Km, pH 7.0, 25° C.) [µM] | IC50 (LMWPTP; pNPP at Km, pH 7.0, 25° C.) [µM] | Inhibition of Laforin at 100 μM (Laforin; 100 μM)
O=C(NNc1ccccc1)C(c1ccc(-c2ccccc2)cc1)S(=O)(=O)O (stereo not drawn) [Compound L319-16-N58] | 22 | 20 | 32 | 20 |  |  |  |  |  |  | 
O=C(O)C(c1ccc(-c2ccccc2)cc1)S(=O)(=O)O (stereo not drawn) [Compound L319-16] | 25 | 11 | > 100 | 5.19 |  |  |  |  |  |  | 
O=C(Nc1nccs1)C(c1ccccc1)S(=O)(=O)O (stereo not drawn) [Compound L319N13] |  |  |  |  | > 100 | > 100 | > 100 | 8000 | > 100 |  | 
O=C(Nc1nc(-c2ccccc2)cs1)C(c1ccccc1)S(=O)(=O)O (stereo not drawn) [Compound L319N14] |  |  |  |  | 31 | 160 | 70 | 6000 | 15 | 20 | 
O=C(Nc1nc2c(Cl)cccc2s1)C(c1ccccc1)S(=O)(=O)O (stereo not drawn) [Compound L319N15-01] |  |  |  |  | 41 | 70 |  | 2200 | 22 | 4.6 | 
Cc1cccc2sc(NC(=O)C(c3ccccc3)S(=O)(=O)O)nc12 (stereo not drawn) [Compound L319N15-02] |  |  |  |  | 129 | > 200 | > 200 | 4000 | 110 | 9.6 | 
COc1cccc2sc(NC(=O)C(c3ccccc3)S(=O)(=O)O)nc12 (stereo not drawn) [Compound L319N15-03] |  |  |  |  | > 200 | > 200 | > 200 | 1200 | > 200 | 7.6 | 
Cc1cc2nc(NC(=O)C(c3ccccc3)S(=O)(=O)O)sc2cc1C (stereo not drawn) [Compound L319N15-04] |  |  |  |  | 112 | > 200 | > 200 | 1100 | 90 | 4.8 | 
O=C(Nc1nc2ccc(F)cc2s1)C(c1ccccc1)S(=O)(=O)O (stereo not drawn) [Compound L319N15-05] |  |  |  |  | 173 | > 200 | > 200 | 1700 | 150 | 4.2 | 
O=C(Nc1nc2ccc(Cl)cc2s1)C(c1ccccc1)S(=O)(=O)O (stereo not drawn) [Compound L319N15-06] |  |  |  |  | 30 | 80 | 130 | 2300 | 23 | 5.6 | 
O=C(Nc1nc2ccc(O[N+](=O)[O-])cc2s1)C(c1ccccc1)S(=O)(=O)O (stereo not drawn) [Compound L319N15-07] |  |  |  |  | > 200 | > 200 | > 200 | > 200000 | > 100 | 2.1 | no detectable inhibition
CCOC(=O)c1ccc2nc(NC(=O)C(c3ccccc3)S(=O)(=O)O)sc2c1 (stereo not drawn) [Compound L319N15-11] |  |  |  |  | 55 |  | 70 | 1700 | 28 | 3.03 | 
